Data set [1] deals with T1, Orexin/Hypocretin receptor type 1 (Homo sapiens) (UniProt O43613).
T1 sequence (whole entry): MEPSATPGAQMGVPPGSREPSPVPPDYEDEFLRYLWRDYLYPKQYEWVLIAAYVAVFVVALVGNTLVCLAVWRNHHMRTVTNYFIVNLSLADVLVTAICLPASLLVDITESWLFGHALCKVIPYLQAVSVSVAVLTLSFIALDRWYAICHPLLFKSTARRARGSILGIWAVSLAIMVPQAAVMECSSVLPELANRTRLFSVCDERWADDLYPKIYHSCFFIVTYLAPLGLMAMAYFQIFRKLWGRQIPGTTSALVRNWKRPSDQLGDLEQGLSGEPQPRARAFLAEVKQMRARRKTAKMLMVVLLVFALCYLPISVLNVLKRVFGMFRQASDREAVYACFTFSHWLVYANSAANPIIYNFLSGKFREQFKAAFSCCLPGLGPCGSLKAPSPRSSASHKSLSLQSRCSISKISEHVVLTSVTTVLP
Briefly: Agonist activity at human OX1 receptor expressed in CHOK1 cells assessed as increase in calcium accumulation at 10 uM incubated for 30 mins measured for 150 secs by calcium-4 dye based FLIPR assay relative to orexin-A. It is filed as functional, cell-based.

Data set [2] addresses T2, Orexin receptor type 2 (Homo sapiens) (UniProt O43614).
T2 sequence (whole entry): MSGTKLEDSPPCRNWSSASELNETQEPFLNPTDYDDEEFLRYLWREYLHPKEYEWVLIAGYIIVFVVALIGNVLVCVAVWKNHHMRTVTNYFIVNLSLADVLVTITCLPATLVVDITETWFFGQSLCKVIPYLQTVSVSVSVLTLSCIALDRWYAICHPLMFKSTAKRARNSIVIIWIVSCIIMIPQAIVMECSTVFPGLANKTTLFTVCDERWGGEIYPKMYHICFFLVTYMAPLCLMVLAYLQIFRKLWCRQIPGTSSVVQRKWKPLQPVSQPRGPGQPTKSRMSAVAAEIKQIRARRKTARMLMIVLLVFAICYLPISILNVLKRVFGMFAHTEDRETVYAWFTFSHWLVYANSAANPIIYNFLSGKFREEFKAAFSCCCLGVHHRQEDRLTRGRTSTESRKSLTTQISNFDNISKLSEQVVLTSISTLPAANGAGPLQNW
Nature of the data set: Displacement of [125I]-orexin-A from human OX2 receptor expressed in CHOK1 cells at 10 uM incubated for 10 mins and measured after 90 mins by liquid scintillation counting method relative to control. In kind it is cell-based.

The target of data set [3] is T2, Orexin receptor type 2 (Homo sapiens). Nature of the data set: Agonist activity at human OX2 receptor expressed in CHOK1 cells assessed as increase in calcium accumulation at 10 uM incubated for 30 mins measured for 150 secs by calcium-4 dye based FLIPR assay relative to orexin-A. In kind it is functional, cell-based.
In data set [4] the target is T1, Orexin/Hypocretin receptor type 1 (Homo sapiens). Nature of the data set: Displacement of [125I]-orexin-A from human OX1 receptor expressed in CHOK1 cells at 10 uM incubated for 10 mins and measured after 90 mins by liquid scintillation counting method relative to control. It is filed as cell-based.
In data set [5] the target is T2, Orexin receptor type 2 (Homo sapiens). Briefly: Allosteric agonist activity at human OX2 receptor expressed in CHOK1 cells assessed as potentiation of orexin-A induced calcium accumulation preincubated for 30 mins followed by orexin-A addition and measured for 150 secs by calcium-4 dye based FLIPR assay. In kind it is functional, cell-based.
A short description of data set [6]: Solubility of the compound in water. In kind it is physicochemical. As to conditions: buffer.
The target of data set [7] is T1, Orexin/Hypocretin receptor type 1 (Homo sapiens). Briefly: Allosteric agonist activity at human OX1 receptor expressed in CHOK1 cells assessed as potentiation of orexin-A induced calcium accumulation at 10 uM preincubated for 30 mins followed by orexin-A addition and measured for 150 secs by calcium-4 dye based FLIPR assay relative to control. In kind it is functional, cell-based.

The test system of a further data set is CHO-K1. Nature of the data set: Effect on ATP-induced intracellular calcium accumulation in CHOK1 cells expressing human OXR at 10 uM incubated for 30 mins and measured for 150 secs by calcium-4 dye based FLIPR assay. As to conditions: Cricetulus griseus. It is filed as functional, cell-based.
For data set [8], the target named is T2, Orexin receptor type 2 (Homo sapiens). Nature of the data set: Allosteric agonist activity at human OX2 receptor expressed in CHOK1 cells assessed as potentiation of orexin-A induced calcium accumulation at 10 uM preincubated for 30 mins followed by orexin-A addition and measured for 150 secs by calcium-4 dye based FLIPR assay relative to control. In kind it is functional, cell-based.

Data set [9] has as its target T1, Orexin/Hypocretin receptor type 1 (Homo sapiens). Briefly: Allosteric agonist activity at human OX1 receptor expressed in CHOK1 cells assessed as potentiation of orexin-A induced calcium accumulation preincubated for 30 mins followed by orexin-A addition and measured for 150 secs by calcium-4 dye based FLIPR assay. It is filed as functional, cell-based.

Structures are written as SMILES. Activity calls are given as the source filed them. The calls are words filed in the database; no cut-off is given here.

On to `COC(=O)c1cc(C=O)c2ccc(/C=C/c3cnc[nH]3)ccc1-2`, for which the results for the Emax in [1] and in data set [3] were 2.35% and 0.4%, respectively. For the same molecule, the inhibition is 39.9% in [2] and 23% in data set [4].

For `COC(=O)c1ccc2c(I)cc(C(=O)c3ccccc3)c-2cc1`, the Emax in data set [1] is 1.17%; in [3] it was -0.25%. Moreover, the Activity result in data set [5] and in data set [9] was “Dose-dependent effect” each time. The inhibition in data set [2] was -5.4%. For the same molecule, in [6], the solubility entry is “Insoluble”. For the same molecule, the fold change (FC) in data set [7] was 1.99; in data set [8] it was 1.02. The result with CHO-K1 was inactive.

For the molecule `COC(=O)c1ccc2c(C(=O)c3ccccc3)cc(C(=O)c3ccccc3)c-2cc1`, the Emax in data set [1] is -0.56%; in data set [3] it was -1.51%. Also, the Activity entry in data set [5] and in [9] was “Dose-dependent effect” throughout. For the same molecule, the solubility result in [6] is “Insoluble”. The fold change (FC) in data set [7] turned out to be 1.97; in [8] it was 0.88. In addition, in the data set with CHO-K1, the result was inactive.

As to `O=C(OCc1ccccc1)Oc1ccc2ccc(Cl)ccc1-2`, the Emax in data set [1] is 0.46%; in [3], -2.71%. Also, the inhibition in data set [2] came out at 35.6%; in [4], 18.2%.

Take `NC(=O)c1ccc2ccc(C(=O)c3ccccc3)c-2cc1`: the Emax in data set [1] came to 0.42%; in data set [3], 1.32%. In addition, the results for the inhibition in data set [2] and in data set [4] were 18% and 13.6%, respectively.

As to `COC(=O)c1cccc2c(C(=O)c3ccccc3)cc(C(=O)c3ccc(C(Cl)(Cl)Cl)cc3)c-2c1`, the Emax is 0.69% in data set [1] and -0.14% in [3]. In addition, the results for the inhibition in data set [2] and in [4] were 27% and 10.4%, respectively.

Take `COC(=O)CCC(=O)Oc1ccc2ccc(Cl)ccc1-2`: the Emax in data set [1] was 0.73%; in data set [3], -2.13%. The figures for the inhibition in data set [2] and in data set [4] were 24.3% and 8%, respectively.

For the molecule `COC(=O)c1ccc2ccc(C=O)c-2cc1`, the Emax in [1] was 3.06%; in [3], 2.26%. Further, the inhibition in data set [2] is 37.2%; in data set [4], 25%.

`COC(=O)c1ccc2ccc(C(=O)c3ccccc3)c-2cc1`: the values for the Emax in data set [1] and in data set [3] were 4.15% and 4.92%, respectively. The inhibition in data set [2] worked out at 28.9%; in data set [4], 7.2%. Further, the fold change (FC) in data set [7] worked out at 1.64; in data set [8], 0.79. Also, in the data set on CHO-K1, the result was inactive.

In the case of `COC(=O)c1cccc2c(C(=O)c3ccccc3)cc(C(=O)c3ccc(C(F)(F)F)cc3)c-2c1`, the Emax in data set [1] was 0.69%; in data set [3], -0.14%. The figures for the inhibition in data set [2] and in data set [4] were 27% and 10.4%, respectively.

Consider `Cc1ccc2ccc(C(=O)c3ccc(C(F)(F)F)cc3)c-2cc1`, for which the Emax in data set [1] was 0.61%; in [3] it was -0.44%. Also, the inhibition in [2] is 31%; in [4], 38.3%.

Take `O=Cc1cc(-c2ccccc2)c2ccc(C(=O)O)ccc1-2`: the Emax in data set [1] was 0.8%; in data set [3], -0.21%. Also, the figures for the inhibition in data set [2] and in [4] were 21.5% and 16.2%, respectively.

Consider `O=C(Oc1ccc2ccc(Cl)ccc1-2)c1cccs1`, for which the Emax is 0.91% in data set [1] and -2.7% in data set [3]. Moreover, the inhibition in data set [2] was determined as 33.2%; in data set [4] it was 9.8%.

On to `O=C(O)c1cccc2c(C(=O)c3ccccc3)cc(C(=O)c3ccc(C(Cl)(Cl)Cl)cc3)c-2c1`, for which the Emax in data set [1] is -1.38%; in [3], -3.18%. Besides, the inhibition in data set [2] came to 25.6%; in data set [4], 19.9%.

On to `NC(=O)c1ccc2c(C=O)cc(-c3ccccc3)c-2cc1`, for which the Emax in [1] was 0.64%; in data set [3], 1.71%. Further, the inhibition in [2] came to 16.7%; in [4], 6.1%.

In the case of `O=Cc1ccc2ccc(C(=O)O)ccc1-2`, the results for the Emax in data set [1] and in [3] were 1.75% and 3.47%, respectively. For the same molecule, the inhibition was 44.1% in data set [2] and 37.8% in data set [4].

For the molecule `O=C(O)Cc1ccc2ccc(C(=O)c3ccc(C(F)(F)F)cc3)c-2cc1`, the figures for the Emax in [1] and in data set [3] were 0.22% and -1.06%, respectively. Moreover, the values for the inhibition in data set [2] and in data set [4] were 11.2% and 8.6%, respectively. The fold change (FC) was 1.5 in data set [7] and 0.98 in [8]. Besides, in the data set on CHO-K1, the result was inactive.

As for `CCOc1ccc(-c2cc(C(=O)c3ccccc3)c3ccc(C(=O)OC)ccc2-3)cc1`, the values for the Emax in [1] and in [3] were 1.49% and -0.24%, respectively. Besides, the figures for the inhibition in data set [2] and in data set [4] were 19.1% and 8.4%, respectively.

`O=C(Oc1ccc2ccc(Cl)ccc1-2)c1ccccc1`: the values for the Emax in data set [1] and in data set [3] were 0.08% and -3.3%, respectively. The inhibition in data set [2] turned out to be 34.3%; in data set [4], 0.1%.

On to `O=C(O)c1ccc2ccc(C(=O)c3ccccc3)c-2cc1`, for which the Emax was 2.16% in data set [1] and 2.29% in [3]. The inhibition was 32.9% in data set [2] and 11% in [4]. In addition, the fold change (FC) in data set [7] worked out at 1.52; in data set [8], 0.98. Besides, the result with CHO-K1 was inactive.

Turning to `COC(=O)Cc1ccc2c(C(=O)c3ccccc3)cc(C(=O)c3ccccc3)c-2cc1`, the Emax in data set [1] came out at 0.28%; in data set [3], 0.05%. The fold change (FC) in data set [7] is 1.68; in data set [8], 1.06. Also, in the data set with CHO-K1, the outcome was inactive.

As to `O=C(O)c1cccc2c(C(=O)c3ccccc3)cc(C(=O)c3ccc(C(F)(F)F)cc3)c-2c1`, the Emax is -1.38% in data set [1] and -3.18% in [3]. Moreover, the inhibition in [2] amounted to 26.4%; in [4], 18.3%.

With `COC(=O)c1ccc2c(C=O)cc(-c3ccccc3)c-2cc1`, the Emax was 0.8% in [1] and -0.27% in [3]. Also, the results for the inhibition in [2] and in data set [4] were 1.8% and 8.5%, respectively.

As to `O=C(O)c1ccc2c(C(=O)c3ccccc3)cc(C(=O)c3ccccc3)c-2cc1`, the figures for the Emax in data set [1] and in [3] were -1.39% and -2.09%, respectively. Further, the inhibition in [2] is 27%. Further, the figures for the fold change (FC) in [7] and in [8] were 1.42 and 0.75, respectively. Also, the result with CHO-K1 was inactive.

As for `CC(C)(C)OC(=O)NCC(=O)Oc1ccc2ccc(Cl)ccc1-2`, the Emax in data set [1] was 1.62%; in data set [3] it was -1.01%. The inhibition in data set [2] was 36%; in data set [4], -4.5%.

Take `O=C(Oc1ccc2ccc(Cl)ccc1-2)c1cccnc1`: the Emax in data set [1] is 0.6%; in data set [3], -2.65%. Moreover, the inhibition was 32.3% in [2] and -2.4% in data set [4].

In the case of `O=C(O)c1ccc2ccc(C(=O)c3ccc(C(F)(F)F)cc3)c-2cc1`, the Emax was determined as 1.09% in [1] and 2.96% in [3]. The inhibition in [2] is 1%. The fold change (FC) in [7] came to 1.53; in data set [8], 0.9. For the same molecule, the outcome with CHO-K1 was inactive.

Source of the values: ChEMBL document CHEMBL4270590, “Azulene-based compounds for targeting orexin receptors” (Eur J Med Chem, 2018).
